27 molecules from patent US9556179B2 (BRISTOL-MYERS SQUIBB COMPANY, priority 2012, dated 2017) can be followed below.

In one assay the target is CK1ε (Homo sapiens (Human), UniProt P49674). The assay can be described thus: CK1ε kinase assay (Caliper LABCHIP electrophoretic separation of fluoresceinated peptide substrate and product). The assay is classed as biochemical. Conditions: 200 pM enzyme, 50 μM ATP, 22 hours at room temperature. In short, it runs like this: (§1)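 Reactions ran 22 hours at room temperature and were stopped with EDTA. Phosphorylated product and unphosphorylated substrate were then separated electrophoretically. Compounds were tested at eleven concentrations, and IC50 values came from non-linear regression.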
CK1ε, sequence (P49674 whole entry): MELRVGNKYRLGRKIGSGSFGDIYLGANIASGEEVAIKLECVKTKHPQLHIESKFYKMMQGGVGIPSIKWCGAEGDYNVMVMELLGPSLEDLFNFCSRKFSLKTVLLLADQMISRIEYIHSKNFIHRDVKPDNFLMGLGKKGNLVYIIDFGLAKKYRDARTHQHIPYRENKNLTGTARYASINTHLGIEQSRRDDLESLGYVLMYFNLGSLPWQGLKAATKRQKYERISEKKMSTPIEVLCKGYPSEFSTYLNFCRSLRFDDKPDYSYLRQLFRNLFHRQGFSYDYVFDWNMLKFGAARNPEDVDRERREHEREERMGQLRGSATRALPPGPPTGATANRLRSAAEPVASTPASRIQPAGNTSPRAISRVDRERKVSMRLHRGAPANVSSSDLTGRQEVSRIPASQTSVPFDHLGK

The next assay concerns the target CK1δ (Homo sapiens (Human), UniProt P48730). The assay can be described thus: CK1δ kinase assay (Caliper LABCHIP electrophoretic separation of fluoresceinated peptide substrate and product). The assay is classed as biochemical. Conditions: 200 pM enzyme, 50 μM ATP, 22 hours at room temperature. In short, it runs like this: as §1

CK1δ, sequence (P48730 whole entry): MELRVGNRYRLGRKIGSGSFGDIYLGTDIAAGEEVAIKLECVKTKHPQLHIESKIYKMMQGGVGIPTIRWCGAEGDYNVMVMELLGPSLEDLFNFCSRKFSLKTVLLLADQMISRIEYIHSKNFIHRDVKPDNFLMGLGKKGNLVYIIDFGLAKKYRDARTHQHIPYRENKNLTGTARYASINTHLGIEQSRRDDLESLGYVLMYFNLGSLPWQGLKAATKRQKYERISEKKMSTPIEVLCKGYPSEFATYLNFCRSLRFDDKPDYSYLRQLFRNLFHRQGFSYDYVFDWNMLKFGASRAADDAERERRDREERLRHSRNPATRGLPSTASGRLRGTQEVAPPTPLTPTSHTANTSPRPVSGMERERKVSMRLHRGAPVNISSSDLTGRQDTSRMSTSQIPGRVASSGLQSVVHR

With `Cc1nc(-c2ccc(F)cc2)c(-c2ccc3nc(NC(=O)c4ccc(-c5ccccc5)[nH]4)cn3n2)n1C` [Compound 333, N-(6-(4-(4-fluorophenyl)-1,2-dimethyl-1H-imidazol-5-yl)imidazo[1,2-b]pyridazin-2-yl)-5-phenyl-1H-pyrrole-2-carboxamide], the values for the IC50 against CK1ε and on CK1δ were 3.28 nM and 1.33 nM, respectively.
The like results for `Cc1nc(-c2ccc(F)cc2)c(-c2ccc3nc(NC(=O)c4cccc(-c5cccnc5)c4)cn3n2)n1C` [Compound 325, N-(6-(4-(4-fluorophenyl)-1,2-dimethyl-1H-imidazol-5-yl)imidazo[1,2-b]pyridazin-2-yl)-3-(pyridin-3-yl) benzamide] were, in that order, 1.44 nM and 0.323 nM.
The like results for `O=C(Nc1cn2nc(-c3c(-c4ccc(F)cc4)ncn3C3CCN(C(=O)OC4COC4)CC3)ccc2n1)c1ccnc(F)c1` [Compound 80, oxetan-3-yl 4-(5-(2-(2-fluoroisonicotinamido)imidazo[1,2-b]pyridazin-6-yl)-4-(4-fluorophenyl)-1H-imidazol-1-yl)piperidine-1-carboxylate] were, in that order, 0.809 nM and 0.171 nM.
As to `O=C(Nc1cn2nc(-c3c(-c4ccc(F)cc4)ncn3-c3ccc(F)cc3)ccc2n1)c1ccnc(F)c1` [Compound 416, N-(6-(1,4-bis(4-Fluorophenyl)-1H-imidazol-5-yl)imidazo[1,2-b]pyridazin-2-yl)-2-fluoroisonicotinamide], the IC50 (usually the concentration at which inhibition is half-maximal) worked out at 57.4 nM against CK1ε and 2.5 nM at CK1δ.
The like results for `Cc1nc(-c2ccc(F)cc2)c(-c2ccc3nc(NC(=O)c4cnoc4)cn3n2)n1C` [Compound 378, N-(6-(4-(4-fluorophenyl)-1,2-dimethyl-1H-imidazol-5-yl)imidazo[1,2-b]pyridazin-2-yl)-4-isoxazolecarboxamide] were, in that order, 60 nM and 6.19 nM.
For `O=C(Nc1cn2nc(-c3c(-c4ccc(F)cc4)ncn3C3CCN(C(=O)c4ccon4)CC3)ccc2n1)c1ccnc(F)c1` [Compound 39, 2-fluoro-N-(6-(4-(4-fluorophenyl)-1-(1-(isoxazole-3-carbonyl)piperidin-4-yl)-1H-imidazol-5-yl)imidazo[1,2-b]pyridazin-2-yl)isonicotinamide] the same measures were 2.22 nM and 1.93 nM.
For `O=C(Nc1cn2nc(-c3c(-c4ccc(F)cc4)nc4ccccn34)ccc2n1)c1cccc(-c2nccs2)c1` [Compound 211, N-(6-(2-(4-fluorophenyl)imidazo[1,2-a]pyridin-3-yl)imidazo[1,2-b]pyridazin-2-yl)-3-(thiazol-2-yl)benzamide] the same measures were 6.77 nM and 1.96 nM.
For `O=C(Nc1cn2nc(-c3c(-c4ccc(F)cc4)nc(C4CC4)n3C3CCN(Cc4ccon4)CC3)ccc2n1)c1ccnc(F)c1` [Compound 128, N-(6-(2-cyclopropyl-4-(4-fluorophenyl)-1-(1-(isoxazol-3-ylmethyl)piperidin-4-yl)-1H-imidazol-5-yl)imidazo[1,2-b]pyridazin-2-yl)-2-fluoroisonicotinamide], the IC50 on CK1ε stood at 6.41 nM; on CK1δ, 0.301 nM.
The like results for `Cc1nc(-c2ccc(F)cc2)c(-c2ccc3nc(NC(=O)c4ccncc4F)cn3n2)n1C` [Compound 397, 3-fluoro-N-(6-(4-(4-fluoro-phenyl)-1,2-dimethyl-1H-imidazol-5-yl)imidazo[1,2-b]pyridazin-2-yl)isonicotin-amide] were, in that order, 6.65 nM and 2.74 nM.
For `Cc1nn(C)cc1CN1CCC(n2cnc(-c3ccc(F)cc3)c2-c2ccc3nc(NC(=O)c4ccnc(F)c4)cn3n2)CC1` [Compound 21] the same measures were 5.56 nM and 0.17 nM.
The like results for `Cc1nc(-c2ccc(F)cc2)c(-c2ccc3nc(NC(=O)c4ccc(CN5CCCC5)cc4)cn3n2)n1C` [Compound 395, N-(6-(4-(4-fluorophenyl)-1,2-dimethyl-1H-imidazol-5-yl)imidazo[1,2-b]pyridazin-2-yl)-4-(pyrrolidin-1-ylmethyl) benzamide] were, in that order, 10.6 nM and 5.46 nM.
Regarding `O=C(Nc1cn2nc(-c3c(-c4ccc(F)cc4)nc4ccccn34)ccc2n1)c1cccc(-c2cncnc2)c1` [Compound 205, N-(6-(2-(4-fluorophenyl)imidazo[1,2-a]pyridin-3-yl)imidazo[1,2-b]pyridazin-2-yl)-3-(pyrimidin-5-yl)benzamide], the IC50 against CK1ε worked out at 4.35 nM; on CK1δ it was 2.04 nM.
On to `Nc1cc(C(=O)Nc2cn3nc(-c4c(-c5ccc(F)cc5)nc5ccccn45)ccc3n2)ccn1` [Compound 194, 2-amino-N-(6-(2-(4-fluorophenyl)imidazo[1,2-a]pyridin-3-yl)imidazo[1,2-b]pyridazin-2-yl) isonicotinamide], for which the figures for the IC50 against CK1ε and at CK1δ were 13.8 nM and 0.715 nM, respectively.
With `Cc1cc(Cn2cnc(-c3ccc(F)cc3)c2-c2ccc3nc(NC(=O)C(C)(C)C)cn3n2)no1` [Compound 278, N-(6-(4-(4-fluorophenyl)-1-((5-methyl-isoxazol-3-yl)ylmethyl)-1H-imidazol-5-yl)imidazo[1,2-b]pyridazin-2-yl)pivalamide], the IC50 at CK1ε amounted to 5.43 nM; against CK1δ, 0.444 nM.
Take `Cc1nc(-c2ccc(F)cc2)c(-c2ccc3nc(NC(=O)c4cccc5ccncc45)cn3n2)n1C` [Compound 331, N-(6-(4-(4-fluorophenyl)-1,2-dimethyl-1H-imidazol-5-yl)imidazo[1,2-b]pyridazin-2-yl)-8-isoquinoline-carboxamide]: the IC50 came to 1.45 nM on CK1ε and 0.249 nM against CK1δ.
For `Cc1nc(-c2ccc(F)cc2)c(-c2ccc3nc(NC(=O)c4ccns4)cn3n2)n1C` [Compound 335, N-(6-(4-(4-fluorophenyl)-1,2-dimethyl-1H-imidazol-5-yl)imidazo[1,2-b]pyridazin-2-yl)-5-isothiazolecarboxamide], the IC50 at CK1ε is 2.57 nM; against CK1δ, 0.476 nM.
The like results for `O=C(Nc1cn2nc(-c3c(-c4ccc(F)cc4)ncn3C3CCN(C(=O)c4ccc(F)cc4)CC3)ccc2n1)c1ccnc(F)c1` [Compound 53, 2-fluoro-N-(6-(1-(1-(4-fluorobenzoyl)piperidin-4-yl)-4-(4-fluorophenyl)-1H-imidazol-5-yl)imidazo[1,2-b]pyridazin-2-yl)isonicotinamide] were, in that order, 1.56 nM and 0.191 nM.
The like results for `O=C(Nc1cn2nc(-c3c(-c4ccc(F)cc4)nc4ccccn34)ccc2n1)c1cncnc1` [Compound 182, N-(6-(2-(4-fluorophenyl)imidazo[1,2-a]pyridin-3-yl)imidazo[1,2-b]pyridazin-2-yl)-5-pyrimidinecarboxamide] were, in that order, 6.13 nM and 0.53 nM.
For `O=C(Nc1cn2nc(-c3c(-c4ccc(F)cc4)ncn3C3CN(CCO)C3)ccc2n1)c1ccnc(F)c1` [Compound 150, 2-fluoro-N-(6-(4-(4-fluorophenyl)-1-(1-(2-hydroxyethyl)azetidin-3-yl)-1H-imidazol-5-yl)imidazo[1,2-b]pyridazin-2-yl)isonicotinamide] the same measures were 3.81 nM and 0.034 nM.
For `Cc1nc(-c2ccc(F)cc2)c(-c2ccc3nc(NC(=O)c4ccnc(F)c4)cn3n2)n1C1CCN(CCCC(F)(F)F)CC1` [Compound 146, 2-fluoro-N-(6-(4-(4-fluorophenyl)-2-methyl-1-(1-(4,4,4-trifluorobutyl)piperidin-4-yl)-1H-imidazol-5-yl)imidazo[1,2-b]pyridazin-2-yl)isonicotinamide], the values for the IC50 against CK1ε and on CK1δ were 24.8 nM and 2.24 nM, respectively.
Take `N#Cc1ccc(C(=O)Nc2cn3nc(-c4c(-c5ccc(F)cc5)nc5ccccn45)ccc3n2)cn1` [Compound 183, 6-cyano-N-(6-(2-(4-fluorophenyl)imidazo[1,2-a]pyridin-3-yl)imidazo[1,2-b]pyridazin-2-yl)nicotinamide]: the IC50 amounted to 3.82 nM on CK1ε and 0.207 nM against CK1δ.
As to `N#CCC(=O)N1CCC(n2cnc(-c3ccc(F)cc3)c2-c2ccc3nc(NC(=O)c4ccnc(F)c4)cn3n2)CC1` [Compound 46, N-(6-(1-(1-(2-cyanoacetyl)piperidin-4-yl)-4-(4-fluorophenyl)-1H-imidazol-5-yl)imidazo[1,2-b]pyridazin-2-yl)-2-fluoroisonicotinamide], the IC50 against CK1ε turned out to be 0.743 nM; against CK1δ, 0.198 nM.
`O=C(Nc1cn2nc(-c3c(-c4ccc(F)cc4)ncn3CCN3CCOCC3)ccc2n1)c1ccncc1` [Compound 160, N-(6-(4-(4-fluorophenyl)-1-(2-morpholinoethyl)-1H-imidazol-5-yl)imidazo[1,2-b]pyridazin-2-yl)isonicotinamide]: the IC50 on CK1ε worked out at 3.21 nM; against CK1δ, 0.306 nM.
For `O=C(Nc1cn2nc(-c3c(-c4ccc(F)cc4)ncn3C3CCN(Cc4ccon4)CC3)ccc2n1)c1ccnc(F)c1` [Compound 12], the IC50 worked out at 0.283 nM against CK1ε and 0.847 nM at CK1δ.
For `N#CCCN1CCC(n2c(C3CC3)nc(-c3ccc(F)cc3)c2-c2ccc3nc(NC(=O)c4cccc(-c5cccnc5)c4)cn3n2)CC1` [Compound 136, N-(6-(1-(1-(2-cyanoethyl)piperidin-4-yl)-2-cyclopropyl-4-(4-fluorophenyl)-1H-imidazol-5-yl)imidazo[1,2-b]pyridazin-2-yl)-3-(pyridin-3-yl)benzamide] the same measures were 8.9 nM and 0.514 nM.
For `Cc1nc(-c2ccc(F)cc2)c(-c2ccc3nc(NC(=O)c4cnn(C)c4)cn3n2)n1C` [Compound 359, N-(6-(4-(4-fluorophenyl)-1,2-dimethyl-1H-imidazol-5-yl)imidazo[1,2-b]pyridazin-2-yl)-1-methyl-1H-pyrazole-4-carboxamide] the same measures were 3.17 nM and 0.599 nM.
As for `Cn1ccnc1CN1CCC(n2cnc(-c3ccc(F)cc3)c2-c2ccc3nc(NC(=O)c4ccnc(F)c4)cn3n2)CC1` [Compound 27, 2-fluoro-N-(6-(4-(4-fluorophenyl)-1-(1-((1-methyl-1H-imidazol-2-yl)methyl)piperidin-4-yl)-1H-imidazol-5-yl)imidazol[1,2-b]pyridazin-2-yl)isonicotinamide], the IC50 came out at 1.13 nM at CK1ε and 0.265 nM against CK1δ.
